Patent US5705333A, “Peptide-based nucleic acid mimics(PENAMS)” (The Regents of The University of California, priority 1994, dated 1998)

Test system: dT10
Test: Thermal denaturation (UV absorbance melting curve, Tm) of hybrids with complementary oligonucleotide dT10
Assay type: binding
Conditions: for Tm (°C.) Me2 AsO2 Na: 10 mM sodium cacodylate buffer; for Tm (°C.) Nax PO4: phosphate buffer
From the text: Thermal denaturation of an ordered, native structure of a nucleic acid disrupts the base-pair stacking and, as a result, the UV absorbance increases. The change in UV absorbance, known as […], is a measure of base-pairing and base-stacking between the two complementary strands. The UV absorbance profile as a function of temperature is called a melting curve and the midpoint of this curve is defined as the melting temperature, Tm, at which 50% of the double strand is dissociated into its two single strands. Thus, the measurement of UV absorbance melting curves provides qualitative and quantitative structural information about the nucleic acid bound to its complementary ligand. Tm also depends on the concentration of the oligonucleotide and the properties of the solvent (buffer: pH, ionic strength, etc.).
Binding studies were carried out by hybridizing the isolated PENAM described above to its complementary oligonucleotide "dT10 " followed by thermal denaturation and measurement of UV absorbance as a function of temperature. The synthetic oligodeoxynucleotide (ODN) dT10 and its complementary oligodeoxynucleotide dA10 were used as the reference nucleic acids. The samples prepared in phosphate buffer (Nax PO4) can precipitate magnesium phosphate at high temperature during the thermal denaturation cycle. This problem was readily avoided by repeating the experiment in 10 mM sodium cacodylate buffer (Me2 AsO2 Na) instead of the phosphate buffer.

[1] = dT10 + 2KpA10 Km, stoichiometry 1:0:2
[2] = dT10 + KpA10 Km, stoichiometry 1:0:1
[3] = dT10 + dA10 + 2KpA10 Km, stoichiometry 1:1:2
[4] = dT10 + dA10 + KpA10 Km, stoichiometry 1:1:1
[5] = thermal denaturation, summary of Table 1

H-Lys-{(D/L)-(AdhAla)10 }-Lys-NH2 [KpA10 Km]
Tm (°C.) Me2 AsO2 Na (2dT10 + KpA10 Km, stoichiometry 2:0:1): 32.28 °C | Tm (°C.) Me2 AsO2 Na [1]: 32.57 °C | Tm (°C.) Nax PO4 [1]: 30.8 °C | Tm (°C.) Me2 AsO2 Na [2]: 31.00 °C | Tm (°C.) Nax PO4 [2]: 31.26 °C | Tm (°C.) Me2 AsO2 Na [3]: 32.26 °C | Tm (°C.) Nax PO4 [3]: 30.07 °C | Tm (°C.) Me2 AsO2 Na [4]: 31.052 °C | Tm (°C.) Nax PO4 [4]: 31.41 °C | Binding to complementary nucleic acid strand [5]: binds to its complementary nucleic acid strand | Melting temperature compared with reference ODN dT10:dA10 [5]: melt at an even higher temperature than the reference ODN
